Key:
[1] = target: T1, menin/MLL (terbium chelate-labeled menin, FITC-MBM1 peptide) (Homo sapiens, UniProt O00255, T541A); experiment: Menin/MLL homogenous time-resolved fluorescence (HTRF) assay; type: binding; conditions: 30 min incubation
T1 construct: Menin (a.a 1-610-6xhis tag, 2.3 mg/mL in 20 mM Hepes)
T1 sequence (O00255 with tags, fused parts or gaps T541A): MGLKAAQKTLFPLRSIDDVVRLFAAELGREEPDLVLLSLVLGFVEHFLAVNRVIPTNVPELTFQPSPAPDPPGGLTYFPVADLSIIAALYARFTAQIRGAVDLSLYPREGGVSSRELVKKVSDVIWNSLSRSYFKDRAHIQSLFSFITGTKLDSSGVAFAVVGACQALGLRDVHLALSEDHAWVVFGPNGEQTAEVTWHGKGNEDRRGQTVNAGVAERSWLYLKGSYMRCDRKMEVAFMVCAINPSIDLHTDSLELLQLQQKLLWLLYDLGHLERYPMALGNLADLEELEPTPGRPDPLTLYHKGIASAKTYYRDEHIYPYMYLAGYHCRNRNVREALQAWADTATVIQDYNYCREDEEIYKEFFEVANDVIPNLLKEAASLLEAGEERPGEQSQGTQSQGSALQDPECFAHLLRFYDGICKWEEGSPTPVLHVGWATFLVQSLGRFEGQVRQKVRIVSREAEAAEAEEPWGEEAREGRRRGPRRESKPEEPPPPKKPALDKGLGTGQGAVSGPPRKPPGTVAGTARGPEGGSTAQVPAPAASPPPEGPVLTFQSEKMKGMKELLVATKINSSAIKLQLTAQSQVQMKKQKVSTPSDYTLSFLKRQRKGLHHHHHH
Description: 1) Menin/MLL Homogenous Time-Resolved Fluorescence (HTRF) Assay
To an untreated, white 384-well microtiter plate was added 40 nL 200× test compound in DMSO and 4 μL 2× terbium chelate-labeled menin (vide infra for preparation) in assay buffer (40 mM Tris HCl, pH 7.5, 50 mM NaCl. 1 mM DTT (dithiothreitol) and 0.05% Pluronic F-127). After incubation of test compound and terbium chelate-labeled menin for 30 min at ambient temperature, 4 μL 2×FITC-MBM1 peptide (FITC-β-alanine-[…]-NH2) (“FITC” means fluorescein isothiocyanate) in assay buffer was added, the microtiter plate centrifuged at 1000 rpm for 1 min and the assay mixtures incubated for 15 min at ambient temperature. The relative amount of menin FITC-MBM1 complex present in an assay mixture is determined by measuring the homogenous time-resolved fluorescence (HTRF) of the terbium/FITC donor/acceptor fluorphore pair using an EnVision microplate reader (ex. 337 nm/terbium em. 490 nm/FITC em. 520 nm) at ambient temperature. The degree of fluorescence resonance energy transfer (the HTRF value) is expressed as the ratio of the fluorescence emission intensities of the FITC and terbium fluorophores (F^em520 nm/F^em490 nm). The final concentrations of reagents in the binding assay are […] terbium chelate-labeled menin, 75 nM FITC-MBM1 peptide and 0.5% DMSO in assay buffer. Dose-response titrations of test compounds are conducted using an 11 point, four-fold serial dilution scheme, starting typically at 10 μM.
Compound potencies were determined by first calculating % inhibition at each compound concentration according to equation 1:
% inhibition=((HC−LC)−(HTRF^compound−LC))/(HC−LC))*100 (Eqn 1)
Where LC and HC are the HTRF values of the assay in the presence or absence of a saturating concentration of a compound that competes with FITC-MBM1 for binding to menin, and HTRF^compound is the measured HTRF value in the presence of the test compound. HC and LC HTRF values represent an average of at least 10 replicates per plate.
% inhibition=Bottom+(Top−Bottom)/(1+10^((log/C50−log[cmpd])*h)) (Eqn 2)
Where Bottom and Top are the lower and upper asymptotes of the dose-response curve, respectively, IC50 is the concentration of compound that yields 50% inhibition of signal and h is the Hill coefficient.
Preparation of Terbium cryptate labeling of Menin: Menin (a.a 1-610-6xhis tag, 2.3 mg/mL in 20 mM Hepes (2-[4-(2-Hydroxyethyl)-1-piperazinyl]ethane sulfonic acid), 80 mM NaCl, 5 mM DTT (Dithiothreitol), pH 7.5) was labeled with terbium cryptate as follows. 200 μg of Menin was buffer exchanged into 1×Hepes buffer. 6.67 μM Menin was incubated with 8-fold molar excess NHS (N-hydroxysuccinimide)-terbium cryptate for 40 minutes at room temperature. Half of the labeled protein was purified away from free label by running the reaction over a NAP5 column with elution buffer (0.1M Hepes, pH 7+0.1% BSA (bovine serum albumin)). The other half was eluted with 0.1 M phosphate buffered saline (PBS), pH7. 400 μl of eluent was collected for each, aliquoted and frozen at −80° C. The final concentration of terbium-labeled Menin protein was 115 μg/mL in Hepes buffer and 85 μg/mL in PBS buffer, respectively.

[2] = tested on: MEIS1 mRNA expression; experiment: MEIS1 mRNA expression assay (Quantigene Singleplex) in MOLM14 cells; type: cell-based, human; conditions: 48 hours incubation
Description: 2b) MEIS1 mRNA Expression Assay
MEIS1 mRNA expression upon treatment of compound was examined by Quantigene Singleplex assay (Thermo Fisher Scientific). This technology allows for direct quantification of mRNA targets using probes hybridizing to defined target sequences of interest and the signal is detected using a Multimode plate reader Envision (PerkinElmer). The MOLM14 cell line was used for this experiment. Cells were plated in 96-well plates at 3,750 cells/well in the presence of increasing concentrations of compounds. After incubation of 48 hours with compounds, cells were lysed in lysis buffer and incubated for 45 minutes at 55° C. Cell lysates were mixed with human MEIS specific capture probe or human RPL28 (Ribosomal Protein L28) specific probe as a normalization control, as well as blocking probes. Cell lysates were then transferred to the custom assay hybridization plate (Thermo Fisher Scientific) and incubated for 18 to 22 hours at 55° C. Subsequently, plates were washed to remove unbound materials followed by sequential addition of preamplifiers, amplifiers, and label probe. Signals (═gene counts) were measured with a Multimode plate reader Envision. IC50S were calculated by dose-response modelling using appropriate software. For all non-housekeeper genes response equal counts corrected for background and relative expression. For each sample, each test gene signal (background subtracted) was divided by the normalization gene signal (RPL28: background subtracted). Fold changes were calculated by dividing the normalized values for the treated samples by the normalized values for the DMSO treated sample. Fold changes of each target gene were used for the calculation of IC50S.

Row | IC50 [1] | IC50 [2] | IC50 ([2]; Homo sapiens, MOLM-14, 48 h) | Structure (SMILES)
1 | 0.073 nM | 119 nM |  | Cc1cncc2c1c(CC1CNC(CC3CCOCC3)C1)cn2-c1ccc(F)cc1C(=O)N(C)C(C)C (single isomer, unassigned) [Compound 134c]
2 | 0.425 nM | > 1000 nM |  | Cc1cncc2c1c(CC1CNC(CC3CCOCC3)C1)cn2-c1ccc(F)cc1C(=O)N(C)C(C)C (single isomer, unassigned) [Compound 134d]
3 | 8.62 nM |  | 2120 nM | Cc1cncc2c1c(C=C1CCN(C)C1)cn2-c1ccc(F)cc1C(=O)N(C)C(C)C (single isomer, unassigned) [Compound 524b]
4 | 0.291 nM |  | 277 nM | CNC(=O)C1CC(CN2CCC(Cc3cn(-c4ccc(F)cc4C(=O)N(C)C(C)C)c4cncc(C)c34)CC2)C1 (stereo not shown) [Compound 129]
5 | 0.057 nM |  | 101 nM | CC(=O)N[C@H]1CC[C@H](CN2CC[C@H](Cc3cn(-c4ccc(F)cc4C(=O)N(C)C(C)C)c4cncc(C)c34)C2)CC1 (single isomer, unassigned) [Compound 73]
6 | 0.097 nM |  | 14 nM | Cc1cncc2c1c(CC1CCN(CC3CCN(C(=O)N(C)C)CC3)CC1)cn2-c1ccc(F)cc1C(=O)N(C)C(C)C [Compound 235]
7 | 0.407 nM |  | 291 nM | Cc1cncc2c1c(C[C@@H]1CCN([C@@H](CN(C)C)C3CCOCC3)C1)cn2-c1ccc(F)cc1C(=O)N(C)C(C)C (single isomer, unassigned) [Compound 240a]
8 | 0.642 nM |  | ~493 nM | CC(=O)N1CC[C@H](CN2CCC(Cc3cn(-c4ccc(F)cc4C(=O)N(C)C(C)C)c4cncc(C)c34)CC2)C1 [Compound 113]
9 | 0.117 nM |  | 29 nM | Cc1cncc2c1c(C[C@@H]1CCN(CC3CCN(C(=O)C(C)C)CC3)C1)cn2-c1ccc(F)cc1C(=O)N(C[C@@H](C)O)C(C)C [Compound 331]
10 | 0.213 nM |  | 217 nM | Cc1cncc2c1c(CC1CN(CC3CCOCC3)C1)cn2-c1ccc(F)cc1C(=O)N1CCC12CCC2 [Compound 261]
11 | 0.066 nM |  | 83 nM | Cc1cncc2c1c(CC1CN(CC3CCN(C(=O)C4(O)CC4)CC3)C1)cn2-c1ccc(F)cc1C(=O)N(C)C(C)C [Compound 251]
12 | 0.304 nM |  | 53 nM | Cc1cncc2c1c(CC1CCN(CC3CCOCC3)CC1)cn2-c1ccc(F)cc1C(=O)N(C)C(C)C [Compound 109]
13 | 0.153 nM |  | 156 nM | Cc1cncc2c1c(CC1CCN(CC3CCC(=O)NC3)CC1)cn2-c1ccc(F)cc1C(=O)N(C)C(C)C (stereo not shown) [Compound 195]
14 | 0.024 nM |  | ~11 nM | CCC([C@H]1C[C@@H](N2C[C@H]3CN(C(C)=O)C[C@@H]3C2)C1)N1CC[C@@H](Cc2cn(-c3ccc(F)cc3C(=O)N(C)C(C)C)c3cncc(C)c23)C1 (mixture of isomers) [Compound 22]
15 | 0.012 nM |  | < 4.1 nM | CC[C@H]([C@H]1C[C@@H](N2C[C@H]3CN(C(C)=O)C[C@@H]3C2)C1)N1CC[C@H](Cc2cn(-c3ccc(F)cc3C(=O)N(C)C(C)C)c3cncc(Cl)c23)C1 (single isomer, unassigned) [Compound 27a]
16 | 0.132 nM |  | 129 nM | CC(=O)N1CCC(CN2C[C@@H](Cc3cn(-c4ccc(F)cc4C(=O)N(C)C(C)C)c4cncc(C)c34)C[C@H]2C)CC1 [Compound 131]
17 | 1.3 nM |  |  | Cc1cncc2c1c(CC1CN([C@@H]3CCN4C(=O)CCC4C3)C1)cn2-c1ccc(F)cc1C(=O)N(C)C(C)C (single isomer, unassigned) [Compound 309a]

Row | IC50 [1] | IC50 [2] | IC50 ([2]; Homo sapiens, MOLM-14, 48 h) | Structure (SMILES)
18 | 10.6 nM |  |  | Cc1cncc2c1c(C[C@@H]1CN[C@@H](C)C1)cn2-c1ccc(F)cc1C(=O)N(C)C(C)C [Compound 522]
19 | 3.68 nM |  |  | Cc1cncc2c1c(CC1CCNC1C)cn2-c1ccc(F)cc1C(=O)N(C)C(C)C (stereo not shown) [Compound 508]
20 | 4.53 nM |  |  | Cc1cncc2c1c(CC1CCNC1C)cn2-c1ccc(F)cc1C(=O)N(C)C(C)C (stereo not shown) [Compound 509]
21 | 6.6 nM |  |  | Cc1cncc2c1c(CC1CCNC1C)cn2-c1ccc(F)cc1C(=O)N(C)C(C)C (stereo not shown) [Compound 507]
22 | 0.149 nM |  |  | Cc1cncc2c1c(C[C@@H]1CCN(CC3CCOCC3)C1)cn2-c1ccc(F)cc1C(=O)N1CCC[C@@H]1CO [Compound 361]
23 | 0.042 nM |  |  | CC(=O)N1CCC(N2CC[C@H](Cc3cn(-c4ccc(F)cc4C(=O)N(C)C(C)C)c4cncc(C)c34)C2)CC1 [Compound 156]
24 | 0.514 nM |  |  | COC(=O)c1cc(F)ccc1-n1cc(C[C@@H]2CCN(CC3CCN(C(C)=O)CC3)C2)c2c(C)cncc21 [Compound 528]
25 | 2.95 nM |  |  | Cc1cncc2c1c(CC1CCNC1C)cn2-c1ccc(F)cc1C(=O)N(C)C(C)C (stereo not shown) [Compound 510]
26 | 3.11 nM |  |  | Cc1cncc2c1c(C[C@H]1CN[C@@H](C)C1)cn2-c1ccc(F)cc1C(=O)N(C)C(C)C [Compound 505]
27 | 0.304 nM |  |  | CNC(=O)c1cncc(N2CCC(N3CC(Cc4cn(-c5ccc(OC)cc5C(=O)N(C)C(C)C)c5cncc(C)c45)C3)CC2)n1 [Compound 76]
28 |  |  | > 1000 nM | CC(=O)N1CCC(CN2CC[C@@H](Cc3cn(-c4ccc(F)cc4S4(=O)=NCCC4)c4cncc(C)c34)C2)CC1 (mixture of isomers) [Compound 214]
29 | 0.808 nM |  |  | COC(=O)c1cc(F)ccc1-n1cc(C[C@@H]2CCN(CC3CCNC(=O)CC3)C2)c2c(C)cncc21 (stereo partly shown) [Compound 533]
30 | 0.556 nM |  |  | COC(=O)c1cc(F)ccc1-n1cc(C[C@@H]2CCN(CC3CCOCC3)C2)c2c(C)cncc21 [Compound 534]
31 | 0.132 nM |  |  | CC(=O)N1CCC(N2CC(Cc3cn(-c4ccc(F)cc4C(=O)N(C)C(C)C)c4cncc(C)c34)C2)C[C@H]1C (single isomer, unassigned) [Compound 292a]
32 | 0.077 nM |  |  | CC(=O)N1CC2CC(N3CC(Cc4cn(-c5ccc(F)cc5C(=O)N(C)C(C)C)c5cncc(C)c45)C3)CC2C1 (stereo not shown) [Compound 294b]
33 | 10.5 nM |  |  | Cc1cncc2c1c(C[C@H]1CN[C@H](C)C1)cn2-c1ccc(F)cc1C(=O)N(C)C(C)C [Compound 503]

— patent US20230250096A1, “SUBSTITUTED PHENYL-1H-PYRROLO[2,3-c] PYRIDINE DERIVATIVES” (Janssen Pharmaceutica NV, priority 2021, published 2023)
